# Measurements taken from patent publication US10052306B2 (LUC THERAPEUTICS, INC., priority 2013, dated 2018).
# pIC50: −log10 of the molar value. Like-named read-outs stand apart in the source and are kept apart here.
# Tests used:
# NR1/NR2B [1] = target: NR1/NR2B (Homo sapiens (Human), UniProt Q13224); assay: Cell assay: FDSS Ca2+ influx inhibition in HEK293 cells expressing NR1/NR2B;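 also: Fluo-8 Ca2+ signal read on Hamamatsu FDSS 6000 after glutamate, glycine and Ca2+ challenge following 10 min compound preincubation, end/baseline fluorescence ratio compared with MK801 control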
# NR1/NR2B [2] = target: NR1/NR2B (Homo sapiens (Human), UniProt Q05586+Q13224); assay: as above; conditions: Ca2+ influx
# [3] = NR2B NAM IC50, HEK293 cells expressing NR1/NR2B
# [4] = Binned Activity, HEK293 cells expressing NR1/NR2B, binned NR2B NAM IC50
# Chain of NR1/NR2B (Homo sapiens (Human), UniProt Q13224) (Q13224 27-1484, other chains not shown): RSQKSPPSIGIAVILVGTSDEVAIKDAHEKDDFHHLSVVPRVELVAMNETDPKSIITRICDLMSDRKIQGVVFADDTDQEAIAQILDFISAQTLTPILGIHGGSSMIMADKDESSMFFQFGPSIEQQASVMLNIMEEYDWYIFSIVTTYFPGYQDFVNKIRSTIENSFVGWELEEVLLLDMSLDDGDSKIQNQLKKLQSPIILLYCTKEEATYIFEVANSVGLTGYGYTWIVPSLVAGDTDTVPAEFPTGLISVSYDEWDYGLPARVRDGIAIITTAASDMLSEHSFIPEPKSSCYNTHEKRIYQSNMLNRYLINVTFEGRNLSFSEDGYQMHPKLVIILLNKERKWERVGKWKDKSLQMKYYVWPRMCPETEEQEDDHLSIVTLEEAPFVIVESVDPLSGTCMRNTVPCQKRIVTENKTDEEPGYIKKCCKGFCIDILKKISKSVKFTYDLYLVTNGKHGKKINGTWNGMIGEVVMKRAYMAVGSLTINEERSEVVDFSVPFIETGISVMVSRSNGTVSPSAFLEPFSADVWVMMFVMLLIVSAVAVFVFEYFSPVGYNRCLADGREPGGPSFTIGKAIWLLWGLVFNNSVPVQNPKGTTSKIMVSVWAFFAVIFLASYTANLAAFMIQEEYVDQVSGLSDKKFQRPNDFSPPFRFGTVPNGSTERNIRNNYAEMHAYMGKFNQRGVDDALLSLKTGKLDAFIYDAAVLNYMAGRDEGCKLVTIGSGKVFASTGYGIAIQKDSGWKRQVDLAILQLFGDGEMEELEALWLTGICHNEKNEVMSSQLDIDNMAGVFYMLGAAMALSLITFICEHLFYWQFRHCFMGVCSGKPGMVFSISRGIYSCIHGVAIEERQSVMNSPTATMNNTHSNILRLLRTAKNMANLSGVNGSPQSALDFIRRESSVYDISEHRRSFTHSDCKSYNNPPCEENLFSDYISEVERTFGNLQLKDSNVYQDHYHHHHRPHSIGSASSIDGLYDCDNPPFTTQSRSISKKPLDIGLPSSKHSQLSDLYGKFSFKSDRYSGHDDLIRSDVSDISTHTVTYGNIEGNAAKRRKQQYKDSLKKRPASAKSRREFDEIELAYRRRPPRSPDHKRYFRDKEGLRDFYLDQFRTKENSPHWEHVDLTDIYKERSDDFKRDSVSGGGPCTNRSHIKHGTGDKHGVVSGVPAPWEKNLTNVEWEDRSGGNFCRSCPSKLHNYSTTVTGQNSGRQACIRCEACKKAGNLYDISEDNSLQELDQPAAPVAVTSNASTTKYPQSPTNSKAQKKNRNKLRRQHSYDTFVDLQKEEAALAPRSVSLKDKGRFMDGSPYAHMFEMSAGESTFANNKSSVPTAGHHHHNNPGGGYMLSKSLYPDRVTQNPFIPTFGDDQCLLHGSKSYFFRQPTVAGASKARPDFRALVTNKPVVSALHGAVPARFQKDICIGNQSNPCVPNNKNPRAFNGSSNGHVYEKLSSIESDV
# Chain of NR1/NR2B (Homo sapiens (Human), UniProt Q05586+Q13224) (Q13224 27-1484, other chains not shown): as above
Structure (SMILES),pIC50 (NR1/NR2B [2]; [3]),pIC50 (NR1/NR2B [2]; [4]),further results
"Oc1ccc([C@H](O)CN2C[C@@H]3C[C@@](O)(Cc4ccccc4)C[C@@H]3C2)cc1 [Example 143, (3aR,5S,6aS)-5-benzyl-2-((S)-2-hydroxy-2-(4-hydroxyphenyl)ethyl)octa-hydrocyclopenta[c]pyrrol-5-ol]",–,–,"pIC50 (NR1/NR2B [1]; read-out: Binned Activity, HEK293 cells expressing NR1/NR2B, Ca2+ influx, binned NR2B NAM IC50): > 7.00"
"O=C(CN1CC2CC(Cc3ccccc3)CC2C1)c1ccc(O)c(F)c1 (stereo not shown) [Example 299, 2-{5-benzyl-octahydrocyclopenta[c]pyrrol-2-yl}-1-(3-fluoro-4-hydroxyphenyl) ethan-1-one]",–,–,pIC50 (NR1/NR2B [1]; read-out: Binned Activity): > 7.00; pIC50 (NR1/NR2B [1]; read-out: NR2B NAM IC50): 7.11
COc1cccc([C@]2(O)C[C@H]3CN(C(=O)Nc4cccc(Cl)c4)C[C@H]3C2)c1 [Example 15],–,< 5.00,–
"Cc1ccc(C[C@]2(O)C[C@H]3CN(CC(O)c4ccc(O)cc4)C[C@H]3C2)cc1 (mixture of isomers) [Example 182, rac-(3aR,5R,6aS)-2-[2-hydroxy-2-(4-hydroxyphenyl)ethyl]-5-[(4-methylphenyl)methyl]-octahydrocyclopenta[c] pyrrol-5-ol]",7.38,–,–
"Oc1ccc(C(O)CN2C[C@@H]3C[C@@](O)(Cc4ccccc4)C[C@@H]3C2)cc1 (mixture of isomers) [Example 131, rac-(3aR,5r,6aS)-5-benzyl-2-(2-hydroxy-2-(4-hydroxyphenyl)ethyl)octa-hydrocyclopenta[c]pyrrol-5-ol]",7.59,> 7.00,–
"O=C1CCc2cc(C(O)CN3C[C@@H]4C[C@@](O)(Cc5ccccc5)C[C@@H]4C3)ccc2N1 (mixture of isomers) [Example 153, rac-6-(2-((3aR,5r,6aS)-5-benzyl-5-hydroxyhexahydrocyclo-penta[c]pyrrol-2(1H)-yl)-1-hydroxyethyl)-3,4-dihydroquinolin-2(1H)-one]",7.40,–,–
"CC(C)(O)c1ccc(C(O)CN2C[C@@H]3C[C@@](O)(Cc4ccccc4)C[C@@H]3C2)cc1 (mixture of isomers) [Example 139, rac-(3aR,5r,6aS)-5-benzyl-2-(2-hydroxy-2-(4-(2-hydroxypropan-2-yl)phenyl)ethyl)octahydro-cyclopenta[c]pyrrol-5-ol]",≤ 5.00,< 5.00,–
COC(=O)c1ccc(NC(=O)N2C[C@@H]3C[C@@](O)(c4ccc(C(C)(C)C)cc4)C[C@@H]3C2)cc1 [Example 50],–,< 5.00,–

# The next lines start with results.
pIC50 (NR1/NR2B [2]; [3]),pIC50 (NR1/NR2B [2]; [4]),Structure (SMILES),further results
7.54,–,"COc1cccc(C[C@]2(O)C[C@H]3CN(CC(O)c4ccc(O)cc4)C[C@H]3C2)c1 (mixture of isomers) [Example 195, rac-(3aR,5r,6aS)-2-(2-hydroxy-2-(4-hydroxyphenyl)ethyl)-5-(3-methoxy-benzyl)octahydro-cyclopenta[c]pyrrol-5-ol]",–
≤ 5.00,< 5.00,"Oc1ccc(C(O)CN2C[C@@H]3C[C@@](O)(c4cccnc4F)C[C@@H]3C2)nc1 (mixture of isomers) [Example 251, rac-(3aR,6aS)-5-(2-fluoropyridin-3-yl)-2-(2-hydroxy-2-(5-hydroxypyridin-2-yl)ethyl)octahydrocyclo-penta[c]pyrrol-5-ol]",–
7.94,> 7.00,"Oc1ccc(C(O)CN2C[C@@H]3C[C@@](O)(Cc4ccc(Cl)cc4)C[C@@H]3C2)nc1 (mixture of isomers) [Example 223, rac-(3aR,5r,6aS)-5-(4-chlorobenzyl)-2-(2-hydroxy-2-(5-hydroxypyridin-2-yl)ethyl)octahydrocyclo-penta[c]pyrrol-5-ol]",–
7.16,–,"Oc1ccc(C(O)CN2C[C@@H]3C[C@@](O)(Cc4c(F)cccc4F)C[C@@H]3C2)nc1 (mixture of isomers) [Example 240, rac-6-{2-[(3aR,5R,6aS)-5-[(2,6-difluorophenyl)methyl]-5-hydroxy-octahydrocyclopenta[c]pyrrol-2-yl]-1-hydroxyethyl}pyridin-3-ol]",–
≤ 5.00,< 5.00,"COc1cccc([C@]2(O)C[C@H]3CN(CC(O)c4cccc(C(F)(F)F)c4)C[C@H]3C2)c1 (mixture of isomers) [Example 73, rac-2-{2-hydroxy-2-[3-(trifluoromethyl)phenyl]ethyl}-5-(3-methoxyphenyl)-octahydrocyclopenta[c] pyrrol-5-ol]",–
